Test results reported in paper PMC11876601 (Molecular Systems Biology, 2025).
Read-outs that look alike come from different tables or passages of the source.

Legend:
[1] = biological target: ADCK1 ; Q86TW2;Q86TW2-2;Q86TW2-3 (Homo sapiens, UniProt Q86TW2); experiment: biochemical; set-up: species or system AsPC-1; Kinobeads competition pulldown in AsPC-1 lysate with LC-MS/MS label-free quantification; apparent Kd
Procedure: (§1) This was followed by incubation with Kinobeads ε (17.5 µl of settled beads) for 30 min at 4 °C to enrich kinases. […] Enriched proteins were reduced with 50 mM DTT in 8 M urea, 40 mM Tris-HCl, pH 7.4 for 30 min at room temperature, and alkylated with 55 mM chloroacetamide. After reducing the urea concentration to 1–2 M, proteins were digested with trypsin at 37 °C for 16 h. Subsequently, eluted peptides were desalted using SepPak tC18 µElution plates (Waters), freeze-dried by vacuum centrifugation, and stored at −20 °C. Proteins were filtered by potential contaminants, reversed hits and proteins identified only by site. Residual binding of proteins was calculated from LFQ intensities as the ratio between drug doses and vehicle. […] Only kinases quantified with at least 4 unique peptides in the vehicle experiment were considered. Potential targets were further curated through manual inspection of dose-dependent reduction in MS/MS and unique peptide counts.

CDC42BPG ; Q6DT37 = CDC42BPG ; Q6DT37 (Homo sapiens, UniProt Q6DT37); experiment: biochemical; set-up: species or system AsPC-1; Kinobeads competition pulldown in AsPC-1 lysate with LC-MS/MS label-free quantification; apparent Kd
Sequence of CDC42BPG ; Q6DT37 (Q6DT37 whole entry): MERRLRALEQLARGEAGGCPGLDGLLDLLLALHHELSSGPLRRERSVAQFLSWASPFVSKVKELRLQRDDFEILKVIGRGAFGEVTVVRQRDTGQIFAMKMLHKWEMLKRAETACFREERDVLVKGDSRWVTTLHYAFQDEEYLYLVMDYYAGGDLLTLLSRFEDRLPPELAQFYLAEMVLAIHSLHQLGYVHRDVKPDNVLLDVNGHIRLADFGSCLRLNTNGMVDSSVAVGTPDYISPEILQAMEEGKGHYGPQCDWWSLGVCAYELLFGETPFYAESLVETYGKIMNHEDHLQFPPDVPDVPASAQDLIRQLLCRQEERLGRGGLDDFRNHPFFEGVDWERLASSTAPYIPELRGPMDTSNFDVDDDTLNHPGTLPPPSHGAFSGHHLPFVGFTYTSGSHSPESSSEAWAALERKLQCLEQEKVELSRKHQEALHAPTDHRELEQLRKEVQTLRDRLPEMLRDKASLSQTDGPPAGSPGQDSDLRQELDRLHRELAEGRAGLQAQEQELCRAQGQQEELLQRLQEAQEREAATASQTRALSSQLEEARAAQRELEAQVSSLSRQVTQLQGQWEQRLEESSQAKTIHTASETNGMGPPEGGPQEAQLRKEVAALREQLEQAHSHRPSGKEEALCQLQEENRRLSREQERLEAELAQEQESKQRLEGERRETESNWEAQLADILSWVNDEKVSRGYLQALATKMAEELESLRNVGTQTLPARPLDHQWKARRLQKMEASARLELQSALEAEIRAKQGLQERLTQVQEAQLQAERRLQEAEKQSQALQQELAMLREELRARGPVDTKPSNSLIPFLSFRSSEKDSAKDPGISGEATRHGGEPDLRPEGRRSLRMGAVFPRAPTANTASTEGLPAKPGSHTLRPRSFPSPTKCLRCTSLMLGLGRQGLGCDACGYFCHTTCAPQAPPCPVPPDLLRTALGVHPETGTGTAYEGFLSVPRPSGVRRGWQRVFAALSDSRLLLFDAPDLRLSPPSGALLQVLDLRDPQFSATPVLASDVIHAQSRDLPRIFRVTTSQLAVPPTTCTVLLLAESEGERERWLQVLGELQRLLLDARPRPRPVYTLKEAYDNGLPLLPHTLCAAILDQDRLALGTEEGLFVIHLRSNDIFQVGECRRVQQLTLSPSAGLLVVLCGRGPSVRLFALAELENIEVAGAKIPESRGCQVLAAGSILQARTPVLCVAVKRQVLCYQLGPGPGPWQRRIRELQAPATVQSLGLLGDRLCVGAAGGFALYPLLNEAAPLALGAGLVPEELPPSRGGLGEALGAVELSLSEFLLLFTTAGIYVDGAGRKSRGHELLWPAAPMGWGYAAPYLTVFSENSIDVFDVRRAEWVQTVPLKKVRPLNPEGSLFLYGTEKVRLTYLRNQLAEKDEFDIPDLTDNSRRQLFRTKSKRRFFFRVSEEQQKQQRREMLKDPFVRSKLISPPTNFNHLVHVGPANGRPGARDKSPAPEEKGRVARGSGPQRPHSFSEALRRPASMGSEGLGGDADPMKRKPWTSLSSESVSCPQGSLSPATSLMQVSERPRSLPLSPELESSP
Procedure: as §1

PIK3C3 ; Q8NEB9 = PIK3C3 ; Q8NEB9 (Homo sapiens, UniProt Q8NEB9); experiment: biochemical; set-up: species or system AsPC-1; Kinobeads competition pulldown in AsPC-1 lysate with LC-MS/MS label-free quantification; apparent Kd
Sequence of PIK3C3 ; Q8NEB9 (Q8NEB9 whole entry): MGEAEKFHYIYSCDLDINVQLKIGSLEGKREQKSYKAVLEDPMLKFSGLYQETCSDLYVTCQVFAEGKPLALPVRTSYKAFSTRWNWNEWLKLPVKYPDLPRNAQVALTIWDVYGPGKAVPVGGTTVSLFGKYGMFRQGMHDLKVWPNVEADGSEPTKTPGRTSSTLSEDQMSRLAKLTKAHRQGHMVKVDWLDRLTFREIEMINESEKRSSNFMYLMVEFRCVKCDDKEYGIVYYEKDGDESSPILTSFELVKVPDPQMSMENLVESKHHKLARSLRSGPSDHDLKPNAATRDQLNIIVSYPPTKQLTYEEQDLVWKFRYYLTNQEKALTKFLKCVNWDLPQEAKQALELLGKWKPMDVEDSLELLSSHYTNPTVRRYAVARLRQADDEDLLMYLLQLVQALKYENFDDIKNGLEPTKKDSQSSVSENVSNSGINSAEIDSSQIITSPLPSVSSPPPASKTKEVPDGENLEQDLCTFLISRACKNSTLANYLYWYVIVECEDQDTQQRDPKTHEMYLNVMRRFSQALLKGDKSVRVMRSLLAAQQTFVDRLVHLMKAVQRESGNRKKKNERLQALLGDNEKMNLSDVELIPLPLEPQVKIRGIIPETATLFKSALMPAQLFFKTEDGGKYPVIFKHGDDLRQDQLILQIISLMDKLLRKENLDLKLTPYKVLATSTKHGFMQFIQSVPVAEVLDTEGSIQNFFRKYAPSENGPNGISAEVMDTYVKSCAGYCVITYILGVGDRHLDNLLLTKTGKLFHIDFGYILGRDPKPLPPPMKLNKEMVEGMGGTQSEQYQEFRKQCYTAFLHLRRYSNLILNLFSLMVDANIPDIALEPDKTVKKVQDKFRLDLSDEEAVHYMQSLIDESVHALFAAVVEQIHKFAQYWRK
Procedure: as §1

STK3 ; Q13188;Q13188-2 = STK3 ; Q13188;Q13188-2 (Homo sapiens, UniProt Q13188); experiment: biochemical; set-up: species or system AsPC-1; Kinobeads competition pulldown in AsPC-1 lysate with LC-MS/MS label-free quantification; apparent Kd
Sequence of STK3 ; Q13188;Q13188-2 (Q13188 whole entry): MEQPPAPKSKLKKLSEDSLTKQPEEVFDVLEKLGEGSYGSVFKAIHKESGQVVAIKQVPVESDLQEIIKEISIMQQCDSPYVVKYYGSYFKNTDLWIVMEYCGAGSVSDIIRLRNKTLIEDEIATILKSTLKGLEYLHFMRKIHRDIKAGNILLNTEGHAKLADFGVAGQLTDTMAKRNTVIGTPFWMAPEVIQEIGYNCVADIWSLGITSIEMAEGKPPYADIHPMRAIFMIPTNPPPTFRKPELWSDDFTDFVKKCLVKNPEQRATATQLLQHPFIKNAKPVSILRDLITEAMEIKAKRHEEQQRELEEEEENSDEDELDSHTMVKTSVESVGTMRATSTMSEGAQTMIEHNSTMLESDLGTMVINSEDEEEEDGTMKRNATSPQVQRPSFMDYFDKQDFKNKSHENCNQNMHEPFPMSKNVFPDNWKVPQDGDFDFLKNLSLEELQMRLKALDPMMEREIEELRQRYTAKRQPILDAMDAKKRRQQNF
Procedure: as §1

MOB1A;MOB1B = system: MOB1A;MOB1B; set-up: method as in Klaeger et al. (2017); conditions: 4 cell line mix lysate, Kinobeads y, ref Klaeger et al. (2017); cited from earlier work
CDK2 = system: CDK2; set-up: method as in Klaeger et al. (2017); conditions: CDK2, 4 cell line mix lysate, Kinobeads y, ref Klaeger et al. (2017); cited from earlier work
Colo-357 cells = experiment: Drug combination viability screen (ATPlite, 72 h); type: cell-based, human; set-up: AUC: unit not given beside the values; conditions: for EC50: Homo sapiens, COLO357;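 on AUC: area under vehicle-normalized viability curve scaled 0 to 100 percent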;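 on Curve bottom: fraction of vehicle control viability from four-parameter log-logistic fit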
Procedure: Cell viability was assessed by measuring ATP levels to indicate metabolic activity.
Afterward, small amounts were transferred to 384-well intermediate plates (Greiner Bio-One GmbH, Germany). […] For drug combination screening, 1000 to 5000 cells were seeded into 384-well plates (CulturPlate™, Perkin Elmer, MA, USA) using a Multidrop™ Combi Reagent Dispenser (Thermo Scientific, MA, USA) in 50 µl medium per well 24 h prior to drug treatment (seeding densities see Appendix Table S1). […] The final DMSO concentration in each well was 0.2%. […] Eight wells per plate without library drug served as negative controls, and sixteen wells per plate containing 5 µM Staurosporine served as positive controls. Control plates not containing any drug were used to correct for incubation effects, and data quality was assessed by calculation of Z-prime of positive and negative controls according to1 Z-prime=1−3SDpos+3SDneg/[…] where SD is the standard deviation. […] Dose–response curves from the experimental and hypothetical data were compared, and shifts in AUC were used to describe combination effects (AUC∆ = AUChypothetical − AUCexperimental). […] Only combinations with R^2 > 0.8 in both conditions were considered in the synergy analysis.

MAP3K11 = conditions: MAP3K11, 5 cell line mix lysate, Kinobeads ε, ref Reinecke et al. (2023), cited from earlier work
PTK2B = biological target: PTK2B; set-up: method as in Reinecke et al. (2023); conditions: 5 cell line mix lysate, Kinobeads ε, ref Reinecke et al. (2023), cited from earlier work
RPS6KA1 = system: RPS6KA1; set-up: method as in Reinecke et al. (2023); conditions: RPS6KA1, 5 cell line mix lysate, Kinobeads ε, ref Reinecke et al. (2023), cited from earlier work
PRKAG1 = system: PRKAG1; set-up: method as in Reinecke et al. (2023); conditions: PRKAG1, 5 cell line mix lysate, Kinobeads ε, ref Reinecke et al. (2023), cited from earlier work
CLK2 = system: CLK2; set-up: method as in Reinecke et al. (2023); conditions: CLK2, 5 cell line mix lysate, Kinobeads ε, ref Reinecke et al. (2023), cited from earlier work
MAPK7 = system: MAPK7; set-up: method as in Reinecke et al. (2023); conditions: MAPK7, 5 cell line mix lysate, Kinobeads ε, ref Reinecke et al. (2023), cited from earlier work

Sequence of ADCK1 ; Q86TW2;Q86TW2-2;Q86TW2-3 (Q86TW2 whole entry): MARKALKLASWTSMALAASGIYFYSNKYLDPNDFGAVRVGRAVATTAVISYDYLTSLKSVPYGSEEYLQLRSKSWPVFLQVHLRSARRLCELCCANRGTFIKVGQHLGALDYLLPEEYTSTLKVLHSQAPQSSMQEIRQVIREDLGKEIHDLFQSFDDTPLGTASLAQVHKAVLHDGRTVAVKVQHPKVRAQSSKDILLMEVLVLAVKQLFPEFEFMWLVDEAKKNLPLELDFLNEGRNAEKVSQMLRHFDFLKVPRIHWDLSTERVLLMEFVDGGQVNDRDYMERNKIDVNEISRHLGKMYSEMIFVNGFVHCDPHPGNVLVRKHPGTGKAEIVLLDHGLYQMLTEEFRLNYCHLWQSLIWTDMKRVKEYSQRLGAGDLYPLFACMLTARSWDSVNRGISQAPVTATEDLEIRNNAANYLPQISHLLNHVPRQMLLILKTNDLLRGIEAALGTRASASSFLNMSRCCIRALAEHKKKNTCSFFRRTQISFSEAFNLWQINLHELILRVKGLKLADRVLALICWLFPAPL

Nc1nn2cc(F)cnc2c1C(=O)Nc1cncc(F)c1N1CCC(C(=O)N2CCN(C3COC3)CC2)CC1 [Gartisertib]
Kd [1]: 23.2 nM | Kd (CDC42BPG ; Q6DT37): 16.9 nM

CNCc1ccc(-c2cc(-c3nc(-c4ccc(S(=O)(=O)C(C)C)cc4)cnc3N)on2)cc1 [Berzosertib]
Kd (PIK3C3 ; Q8NEB9): 9.2 nM | Kd (STK3 ; Q13188;Q13188-2): 70.2 nM

C[C@]12O[C@H](C[C@]1(O)CO)n1c3ccccc3c3c4c(c5c6ccccc6n2c5c31)CNC4=O [Lestaurtinib]
EC50 (MOB1A;MOB1B): 34 nM | EC50 (CDK2): […]

Nc1ccn([C@@H]2O[C@H](CO)[C@@H](O)C2(F)F)c(=O)n1 [GEM, Gemcitabine]
ATP luminescence signal (Colo-357 cells; Colo-357, R1, 13.72 nM): 68560 | ATP luminescence signal (Colo-357 cells; Colo-357, R1, 41.15 nM): 61560 | ATP luminescence signal (Colo-357 cells; Colo-357, R1, […] nM): 70640 | ATP luminescence signal (Colo-357 cells; Colo-357, R1, 370.37 nM): 48200 | ATP luminescence signal (Colo-357 cells; Colo-357, R1, 1111.11 nM): 53560 | ATP luminescence signal (Colo-357 cells; Colo-357, R1, 3333.33 nM): 50680 | ATP luminescence signal (Colo-357 cells; Colo-357, R1, 10000 nM): 66360 | ATP luminescence signal (Colo-357 cells; Colo-357, R2, 13.72 nM): 110000 | ATP luminescence signal (Colo-357 cells; Colo-357, R2, 41.15 nM): 110560 | ATP luminescence signal (Colo-357 cells; Colo-357, R2, […] nM): 89840 | ATP luminescence signal (Colo-357 cells; Colo-357, R2, 370.37 nM): 97560 | ATP luminescence signal (Colo-357 cells; Colo-357, R2, 1111.11 nM): 70040 | ATP luminescence signal (Colo-357 cells; Colo-357, R2, 3333.33 nM): 80720 | ATP luminescence signal (Colo-357 cells; Colo-357, R2, 10000 nM): 83360 | Curve bottom (Colo-357 cells; Colo-357, GEM curve fit): 0.03 | Curve effect size (Colo-357 cells; Colo-357, GEM curve fit): 0.97 | Curve slope (Colo-357 cells; Colo-357, GEM curve fit): 3.24 | Curve top (Colo-357 cells; Colo-357, GEM curve fit): 0.97 | AUC (Colo-357 cells; Colo-357, GEM curve fit, in %): 20.82 | EC50 (Colo-357 cells; read-out: EC50): 1.32 nM | EC50 (Colo-357 cells; read-out: pEC50 (converted)): 1.32 nM

COc1cc(N2CCC(N3CCN(C)CC3)CC2)ccc1Nc1ncc(Cl)c(Nc2ccccc2P(C)(C)=O)n1 [Brigatinib]
EC50 (MAP3K11): 3.2 µM | pKDapp (MAP3K11): 5.65 | Kd (MAP3K11; read-out: KDapp): 2230 nM | Kd (PTK2B; read-out: KDapp): 5.14 nM | EC50 (PTK2B): 12.4 nM | pKDapp (PTK2B): 8.29 | EC50 (RPS6KA1): 376 nM | pKDapp (RPS6KA1): 6.55 | Kd (RPS6KA1; read-out: KDapp): 283 nM | EC50 (PRKAG1): 559 nM | pKDapp (PRKAG1): 6.45 | Kd (PRKAG1; read-out: KDapp): 354 nM | EC50 (CLK2): 686 nM | pKDapp (CLK2): 6.35 | Kd (CLK2; read-out: KDapp): 444 nM | EC50 (MAPK7): 1060 nM | pKDapp (MAPK7): 6.08 | Kd (MAPK7; read-out: KDapp): 828 nM
